Like-named read-outs stand apart in the source and are kept apart here.
Experiments:
[1] = molecular target: T1, Corynebacterium glutamicum glucose 6-phosphate dehydrogenase (G6PDH, zwf), variant A243T (Corynebacterium glutamicum, UniProt Q8NQ63); experiment: Kinetic characterization of A243T-variant of G6P dehydrogenase (Michaelis-Menten constants and inhibition by metabolites); type: biochemical; conditions: for Km: A243T mutant, cell extracts from cells grown on minimal medium with glucose, 30° C., pH 7.8
T1 construct: grown on glucose minimal medium
Experimental: (§1) In the exponential growth phase, cells were harvested by centrifugation (5 min, 9800×g, Biofuge stratos, Heraeus, Hanau, Germany), washed once with disruption buffer and finally suspended to 0.25 g CWW per mL. Disruption was performed by sonication (MSE soniprep 150, Sanyo Europe, Munich, Germany) in a ice-water-bath with five 15 sec pulses at 20 microns, or mechanically. To this end, cell suspension was aliquoted in 750 μl amounts in 2 mL Eppendorf tubes containing glass beads. Disruption was performed in a ribolyser (MM301, Retsch, Haan, Germany) at 30 Hz (2×5 min; 5 minutes break in between). Crude cell extracts were obtained by centrifugation for 10 minutes at 13000 rpm (Biofuge fresco, Heraeus, Hanau, Germany) for ribolyser disruption or 2×30 min at 8500 rpm (Biofuge stratos, Heraeus, Hanau, Germany) for disruption by sonication. Protein content was determined by the method of Bradford (Bradford, 1976) with a reagent solution from BioRad (Quick Start Bradford Dye, BioRad, Hercules, USA) and a BSA protein standard.
(§2) All measurements were performed as triplicates in a total volume of 1 mL by online monitoring of the change in absorbance in a photospectrometer (Specord 40, Analytik Jena, Jena, Germany or Helios alpha, Thermo Scientific, Waltham, USA). Negative controls were carried out without substrate or cell extract, respectively. Activities are given as specific enzyme activity [U mg^−1] with 1 U=1 μmol min^−1 at 30° C. and calculated from the change in absorbance [A min^−1] and a specific extinction coefficient of ε340=6.22 L mmol^−1 cm^−1 for NAD(P)H. As a general procedure, a master mix without substrate and cell extract was prepared from the stock solutions for the reaction buffer, MgCl2, Co-factors (NADP, NAD, NADH, ADP, TPP, CoA) and coupling enzymes (LDH, G6PDH, PGI, ribose 5-phosphate isomerase (RPI), ribulose 5-phosphate epimerase (RPE), TPI/GDH) and incubated for 10 min at 30° C. Substrate solution and cell extract were provided in 1.5 mL polystyrene cuvettes (Plastibrand, Wertheim, Germany). The reaction was started by quick addition of the master mix.
Cell disruption was performed in a buffer containing 100 mM Tris/HCl (pH 7.5), 10 mM MgCl2 and 0.75 mM DTT. DTT was prepared freshly as 100 mM stock solution and added to the cell suspension before disruption. Due to instability of the enzyme, the activity was measured immediately after cell disruption. The reaction mix for quantification of the G6P dehydrogenase activity contained 100 mM Tris/HCl (pH 7.8), 200 mM KCl, 1 mM NADP, 10 mM MgCl2, 5 mM G6P and 50 μl cell extract. Michaelis-Menten affinity constants were determined by varying the concentrations of the substrates, G6P or NADP, respectively. To test the influence of effectors on activity, the reaction mix was additionally supplemented with ATP, PEP, FBP or NADPH in varied concentrations.

[2] = molecular target: T2, Corynebacterium glutamicum glucose 6-phosphate dehydrogenase (G6PDH, zwf), wild type (Corynebacterium glutamicum, UniProt Q8NQ63); experiment: Kinetic characterization of wild type G6P dehydrogenase (Michaelis-Menten constants and inhibition by metabolites); type: biochemical; conditions: relative to the activity without addition (100%)
T2 sequence (Q8NQ63 1-484): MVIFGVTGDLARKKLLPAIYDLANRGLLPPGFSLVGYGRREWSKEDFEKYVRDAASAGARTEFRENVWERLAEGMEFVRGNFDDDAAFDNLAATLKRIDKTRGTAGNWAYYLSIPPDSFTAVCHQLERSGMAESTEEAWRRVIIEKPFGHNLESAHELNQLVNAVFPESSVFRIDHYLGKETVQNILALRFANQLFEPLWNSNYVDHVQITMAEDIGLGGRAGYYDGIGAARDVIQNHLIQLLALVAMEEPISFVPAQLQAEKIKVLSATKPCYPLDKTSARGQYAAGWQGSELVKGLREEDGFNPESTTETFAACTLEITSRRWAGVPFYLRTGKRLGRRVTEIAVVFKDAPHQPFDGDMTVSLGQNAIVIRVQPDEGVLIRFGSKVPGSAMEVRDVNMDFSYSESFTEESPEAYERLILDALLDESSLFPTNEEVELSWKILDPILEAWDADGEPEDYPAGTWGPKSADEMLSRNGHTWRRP
T2 sequence (Q8NQ62 1-319 partner): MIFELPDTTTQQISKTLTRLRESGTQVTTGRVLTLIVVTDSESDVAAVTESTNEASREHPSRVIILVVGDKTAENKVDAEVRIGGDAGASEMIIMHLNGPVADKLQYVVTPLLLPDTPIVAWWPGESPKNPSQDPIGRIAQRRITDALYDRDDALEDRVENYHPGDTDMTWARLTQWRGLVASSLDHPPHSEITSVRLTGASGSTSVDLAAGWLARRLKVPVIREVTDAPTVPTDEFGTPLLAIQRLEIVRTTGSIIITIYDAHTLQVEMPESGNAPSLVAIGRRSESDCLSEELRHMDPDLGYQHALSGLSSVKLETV
Experimental: as §1
as §2, with “Negative controls were carried out without substrate or cell extract, respectively.” left out, “Substrate solution and cell extract were provided in 1.5 mL polystyrene cuvettes (Plastibrand, Wertheim, Germany). The reaction was started by quick addition of the master mix.” left out
Cell disruption was performed in a buffer containing 100 mM Tris/HCl (pH 7.5), 10 mM MgCl2 and 0.75 mM DTT. […] Due to instability of the enzyme, the activity was measured immediately after cell disruption. […]

[3] = tested on: Corynebacterium glutamicum diaminopimelate dehydrogenase (DDH), SEQ ID NO: 6; conditions: Wehrmann, et al., 1998; read-out: km value towards ammonium; cited from earlier work

**Q.** For Nc1ncnc2c1ncn2[C@@H]1O[C@H](COP(=O)(O)OP(=O)(O)OP(=O)(O)O)[C@@H](O)[C@H]1O [ATP, Adenosine triphosphate], which “Inhibition by metabolites (Remaining Activity), ATP” value ([1]; 5 mM ATP, relative to the activity without addition (100%)) is on record?
**A.** Its value is 86.0 ± 0.2%.

**Q.** And the percent remaining activity at 5000 µM ([2]; 5 mM ATP)?
**A.** Its percent remaining activity at 5000 µM is 68.8 ± 0.1%.

**Q.** Which results are given for O=P(O)(O)OC[C@H]1OC(O)(COP(=O)(O)O)[C@@H](O)[C@@H]1O (stereo partly shown) [FBP, Fructose 1,6-bisphosphate]?
**A.** Inhibition by metabolites (Remaining Activity), FBP ([1]; 5 mM FBP, relative to the activity without addition (100%)): 87.0 ± 0.1%; inhibition at 5000 µM ([2]; 5 mM FBP, read-out: Inhibition by metabolites (Remaining Activity), FBP): 84.4%

**Q.** With O=P(O)(O)OC[C@H]1OC(O)[C@H](O)[C@@H](O)[C@@H]1O (stereo partly shown) [G6P, Glucose 6-phosphate] as the compound, how does the Km ([1]; read-out: KM, G6P) read?
**A.** Its Km is 481 ± 31 µM.

**Q.** Which Km ([1]; read-out: KM, NADP) does the source give for NC(=O)c1ccc[n+]([C@@H]2O[C@H](COP(=O)(O)OP(=O)(O)OC[C@H]3O[C@@H](n4cnc5c(N)ncnc54)[C@H](OP(=O)(O)O)[C@@H]3O)[C@@H](O)[C@H]2O)c1 [NADP, Nicotinamide adenine dinucleotide phosphate] here?
**A.** Its Km is 75 ± 4 µM.

**Q.** Which “inhibition by NADPH” value ([1]; A243T compared with wild type enzyme, FIG. 10B) does the source give for NC(=O)C1=CN([C@@H]2O[C@H](COP(=O)(O)OP(=O)(O)OC[C@H]3O[C@@H](n4cnc5c(N)ncnc54)[C@H](OP(=O)(O)O)[C@@H]3O)[C@@H](O)[C@H]2O)C=CC1 [NADPH, Nicotinamide adenine dinucleotide phosphate] here?
**A.** Its value is “No significant difference”.

**Q.** With C=C(OP(=O)(O)O)C(=O)O [PEP, Phosphoenolpyruvate] as the compound, how does the “Inhibition by metabolites (Remaining Activity), PEP” value ([1]; 5 mM PEP, relative to the activity without addition (100%)) read?
**A.** Its value is 72.5 ± 0.1%.

**Q.** What about the inhibition at 5000 µM ([2]; 5 mM PEP, read-out: Inhibition by metabolites (Remaining Activity), PEP) of the same compound?
**A.** The inhibition at 5000 µM was 62.6 ± 0.1%.

**Q.** For N [ammonium], which Km [3] is on record?
**A.** The Km was 34 mM.
